In patent publication US11180474B2 (BRISTOL-MYERS SQUIBB COMPANY, priority 2016, dated 2021):
Counter-ions that a name gives are not always drawn.

Tests used:
human TLR8 = molecular target: T1, human TLR8 (Homo sapiens, UniProt Q9NR97); assay: TLR8 inhibition reporter assay (HEK-Blue cells, SEAP reporter, R848 stimulation); type: cell-based; conditions: HEK-Blue cells overexpressing human TLR8, R848 15.9 μM
T1 construct: host or cells: HEK-Blue cells
T1 sequence (Q9NR97 27-1041): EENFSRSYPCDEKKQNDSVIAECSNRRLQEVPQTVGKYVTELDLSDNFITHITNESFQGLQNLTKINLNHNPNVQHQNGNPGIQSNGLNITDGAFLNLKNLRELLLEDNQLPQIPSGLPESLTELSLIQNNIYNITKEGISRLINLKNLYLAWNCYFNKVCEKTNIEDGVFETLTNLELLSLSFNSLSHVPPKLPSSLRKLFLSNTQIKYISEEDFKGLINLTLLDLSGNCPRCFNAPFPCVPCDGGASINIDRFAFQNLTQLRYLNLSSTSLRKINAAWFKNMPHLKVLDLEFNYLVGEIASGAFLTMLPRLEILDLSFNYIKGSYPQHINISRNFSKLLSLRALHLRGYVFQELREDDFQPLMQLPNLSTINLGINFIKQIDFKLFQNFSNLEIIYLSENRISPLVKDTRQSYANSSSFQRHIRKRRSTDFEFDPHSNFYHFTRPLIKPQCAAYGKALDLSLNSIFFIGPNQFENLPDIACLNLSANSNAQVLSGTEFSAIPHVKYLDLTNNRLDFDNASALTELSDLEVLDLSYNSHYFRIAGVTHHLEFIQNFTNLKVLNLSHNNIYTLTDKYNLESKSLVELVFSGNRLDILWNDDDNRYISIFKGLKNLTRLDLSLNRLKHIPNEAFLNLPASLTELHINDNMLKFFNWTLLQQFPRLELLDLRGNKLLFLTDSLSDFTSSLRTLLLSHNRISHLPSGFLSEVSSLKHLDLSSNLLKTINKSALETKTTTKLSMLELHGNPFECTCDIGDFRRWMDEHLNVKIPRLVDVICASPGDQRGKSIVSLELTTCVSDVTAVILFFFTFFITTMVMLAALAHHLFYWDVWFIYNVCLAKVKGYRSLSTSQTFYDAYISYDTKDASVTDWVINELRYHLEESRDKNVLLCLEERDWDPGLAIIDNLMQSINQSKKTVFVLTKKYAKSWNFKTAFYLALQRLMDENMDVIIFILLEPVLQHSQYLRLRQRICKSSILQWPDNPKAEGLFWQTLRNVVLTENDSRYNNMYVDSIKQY
In short: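 22 h, 37° C, 5% CO2 incubation; compounds 0.05 nM-50 μM final; TLR7 cells 15000/well, TLR8 20,000/well. Readout: SEAP via HEK-Blue Detection medium. % inhibition = signal reduction versus agonist + DMSO wells, referenced to known inhibitor.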

human TLR9 = molecular target: T2, human TLR9 (Homo sapiens, UniProt Q9NR96); assay: TLR9 inhibition reporter assay (HEK-Blue cells, SEAP reporter, ODN2006 stimulation); type: cell-based; conditions: HEK-Blue cells overexpressing human TLR9, ODN2006 5 nM
T2 construct: host or cells: HEK-Blue cells
T2 sequence (Q9NR96 26-1032): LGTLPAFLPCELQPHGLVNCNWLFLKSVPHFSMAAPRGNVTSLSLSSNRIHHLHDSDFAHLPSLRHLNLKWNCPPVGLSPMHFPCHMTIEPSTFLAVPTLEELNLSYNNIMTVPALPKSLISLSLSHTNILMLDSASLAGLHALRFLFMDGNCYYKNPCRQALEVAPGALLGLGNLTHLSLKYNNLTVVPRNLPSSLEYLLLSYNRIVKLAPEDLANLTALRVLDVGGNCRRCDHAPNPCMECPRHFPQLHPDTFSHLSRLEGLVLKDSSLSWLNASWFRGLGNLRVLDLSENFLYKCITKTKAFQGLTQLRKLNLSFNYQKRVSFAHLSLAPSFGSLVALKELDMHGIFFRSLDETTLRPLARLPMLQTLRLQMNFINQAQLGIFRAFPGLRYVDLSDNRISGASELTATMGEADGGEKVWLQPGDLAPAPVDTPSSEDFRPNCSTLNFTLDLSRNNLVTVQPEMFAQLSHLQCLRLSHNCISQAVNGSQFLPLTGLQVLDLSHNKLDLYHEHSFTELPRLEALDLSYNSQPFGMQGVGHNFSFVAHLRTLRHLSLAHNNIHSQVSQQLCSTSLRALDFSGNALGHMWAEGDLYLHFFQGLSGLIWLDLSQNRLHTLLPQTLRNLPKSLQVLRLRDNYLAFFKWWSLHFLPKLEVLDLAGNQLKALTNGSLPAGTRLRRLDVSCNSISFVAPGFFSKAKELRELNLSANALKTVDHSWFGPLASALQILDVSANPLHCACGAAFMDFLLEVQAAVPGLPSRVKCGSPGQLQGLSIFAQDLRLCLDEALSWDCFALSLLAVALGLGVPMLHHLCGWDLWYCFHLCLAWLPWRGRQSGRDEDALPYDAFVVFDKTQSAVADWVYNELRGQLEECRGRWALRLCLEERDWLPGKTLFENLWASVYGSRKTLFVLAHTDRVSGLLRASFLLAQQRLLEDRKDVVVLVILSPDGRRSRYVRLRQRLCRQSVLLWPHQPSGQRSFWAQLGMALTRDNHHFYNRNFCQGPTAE
In short: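 Compound treatment: 30 min, RT, 0.05 nM–50 μM final. Agonist: TLR7 gardiquimod 7.5 μM; TLR8 R848 15.9 μM; TLR9 ODN2006 5 nM. Incubation 22 h, 37 °C, 5% CO2. Readout SEAP, HEK-Blue Detection.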

| Structure (SMILES) | IC50 (human TLR8) [nM] | IC50 (human TLR9) [nM] |
| --- | --- | --- |
| COc1ccc(-c2[nH]c3ccc(C4CCN(C(=O)CNC5(CO)CCCC5)CC4)cc3c2C(C)C)cc1OC [Example 213, 1-(4-(2-(3,4-dimethoxyphenyl)-3-isopropyl-1H-indol-5-yl)piperidin-1-yl)-2-((1-(hydroxymethyl)cyclopentyl)amino)ethan-1-one] | 18 | 2070 |
| COc1ccc(-c2[nH]c3ccc(C4CCN(C5CCN(C(C)C)CC5)CC4)cc3c2C)cc1OC [Example 10, 2-(3,4-dimethoxyphenyl)-5-(1′-isopropyl-[1,4′-bipiperidin]-4-yl)-3-methyl-1H-indole] | 201 | 202 |
| COc1ccc(-c2[nH]c3ccc(C4CCN(C5CCNCC5)CC4)cc3c2C(C)C)cc1OC [Example 197, 5-([1,4′-bipiperidin]-4-yl)-2-(3,4-dimethoxyphenyl)-3-isopropyl-1H-indole dihydrochloride] | 25 | 653 |
| CCc1c(-c2ccc(OC)c(OC)c2)[nH]c2ccc(C3CCN(C(=O)C4(C)CCNCC4)CC3)cc12 [Example 187, (4-(2-(3,4-dimethoxyphenyl)-3-ethyl-1H-indol-5-yl)piperidin-1-yl)(4-methylpiperidin-4-yl)methanone] | 162 | 1280 |
| CNCCN1CCC(c2ccc3c(c2)c(C)c(-c2ccc(OC)c(OC)c2)n3C)CC1 [Example 114, 2-(4-(2-(3,4-dimethoxyphenyl)-1,3-dimethyl-1H-indol-5-yl)piperidin-1-yl)-N-methylethan-1-amine] | 958 | 737 |
| CCc1c(-c2ccc(OC)c(OC)c2)[nH]c2ccc(C3CCN(CCNC)CC3)cc12 [Example 155, 2-(4-(2-(3,4-dimethoxyphenyl)-3-ethyl-1H-indol-5-yl)piperidin-1-yl)-N-methylethanamine di-trifluoroacetic acid] | 29 | 492 |
| CCc1c(-c2ccc(OC)c(OC)c2)[nH]c2ccc(C3CCN(C4CCN(Cc5cnc(C)o5)CC4)CC3)cc12 [Example 124, 5-((4-(2-(3,4-dimethoxyphenyl)-3-ethyl-1H-indol-5-yl)-[1,4′-bipiperidin]-1′-yl)methyl)-2-methyloxazole] | 248 | 1280 |
| COc1ccc(-c2[nH]c3ccc(C4CCN(C(=O)CN(C)C)CC4)cc3c2C(C)C)cc1OC [Example 209, 1-(4-(2-(3,4-dimethoxyphenyl)-3-isopropyl-1H-indol-5-yl)piperidin-1-yl)-2-(dimethylamino)ethan-1-one] | 24 | 1660 |
| CCc1c(-c2ccc(OC)c(OC)c2)[nH]c2ccc(C3CCN(C4CCN(Cc5csnn5)CC4)CC3)cc12 [Example 130, 4-((4-(2-(3,4-dimethoxyphenyl)-3-ethyl-1H-indol-5-yl)-[1,4′-bipiperidin]-1′-yl)methyl)-1,2,3-thiadiazole] | 792 | 6230 |
| COc1ccc(-c2[nH]c3ccc(C4CCN(C(=O)CNC56CC7CC(CC(C7)C5)C6)CC4)cc3c2C(C)C)cc1OC [Example 217, 2-(((3s,5s,7s)-adamantan-1-yl)amino)-1-(4-(2-(3,4-dimethoxyphenyl)-3-isopropyl-1H-indol-5-yl)piperidin-1-yl)ethan-1-one] | 379 | 2130 |
| COc1ccc(-c2[nH]c3cc(C)c(C4CCN(C5CCN(C(C)C)CC5)CC4)cc3c2C)cc1OC [Example 115, 2-(3,4-dimethoxyphenyl)-5-(1′-isopropyl-[1,4′-bipiperidin]-4-yl)-3,6-dimethyl-1H-indole-di-trifluoroacetic acid] | 2230 | 77 |
| COc1ccc(-c2[nH]c3ccc(C4CCN(C5CCN(CC(C)C)CC5)CC4)cc3c2C(C)C)cc1OC [Example 199, 2-(3,4-dimethoxyphenyl)-5-(1′-isobutyl-[1,4′-bipiperidin]-4-yl)-3-isopropyl-1H-indole] | 19 | 257 |
| CCc1c(-c2ccc(OC)c(OC)c2)[nH]c2ccc(C3CCN(C4CCN(C)CC4)CC3)cc12 [Example 150, 2-(3,4-dimethoxyphenyl)-3-ethyl-5-(1′-methyl-[1,4′-bipiperidin]-4-yl)-1H-indole] | 1360 | 2340 |
| CCc1c(-c2ccc(OC)c(OC)c2)[nH]c2ccc(C3CCN(C(=O)CNc4nccs4)CC3)cc12 [Example 177, 1-(4-(2-(3,4-dimethoxyphenyl)-3-ethyl-1H-indol-5-yl)piperidin-1-yl)-2-(thiazol-2-ylamino)ethanone] | 36 | 3360 |
| COc1ccc(-c2[nH]c3ccc(C4CCN(C5CCN(CC(C)C)CC5)CC4)cc3c2Cl)cc1OC [Example 120, 3-chloro-2-(3,4-dimethoxyphenyl)-5-(1′-isobutyl-[1,4′-bipiperidin]-4-yl)-1H-indole di-trifluoroacetic acid] | 1260 | 157 |
| CCc1c(-c2ccc(OC)c(OC)c2)[nH]c2ccc(C3CCN(C4CCN(CC)CC4)CC3)cc12 [Example 149, 2-(3,4-dimethoxyphenyl)-3-ethyl-5-(1′-ethyl-[1,4′-bipiperidin]-4-yl)-1H-indole] | 31 | 152 |
| CCN(CC)C(=O)CN(C)CC(=O)N1CCC(c2ccc3[nH]c(-c4ccc(OC)c(OC)c4)c(C(C)C)c3c2)CC1 [Example 203, 2-((2-(4-(2-(3,4-dimethoxyphenyl)-3-isopropyl-1H-indol-5-yl)piperidin-1-yl)-2-oxoethyl)(methyl)amino)-N,N-diethylacetamide, TFA] | 286 | 6660 |
| COc1ccc(-c2[nH]c3ccc(C4CCN(C5CCN(CC(C)C)CC5)CC4)cc3c2C)cc1OC [Example 6, 2-(3,4-dimethoxyphenyl)-5-(1′-isobutyl-[1,4′-bipiperidin]-4-yl)-3-methyl-1H-indole] | 247 | 221 |
| CCc1c(-c2ccc(OC)c(OC)c2)[nH]c2ccc(C3CCN(C(=O)CN4CCCC(C(=O)N(CC)CC)C4)CC3)cc12 (single isomer, unassigned) [Example 179, 1-(2-(4-(2-(3,4-dimethoxyphenyl)-3-ethyl-1H-indol-5-yl)piperidin-1-yl)-2-oxoethyl)-N,N-diethylpiperidine-3-carboxamide] | 68 | 747 |
| CCc1c(-c2ccc(OC)c(OC)c2)[nH]c2ccc(C3CCN(C4CCN(Cc5ccsc5)CC4)CC3)cc12 [Example 142, 2-(3,4-dimethoxyphenyl)-3-ethyl-5-(1′-(thiophen-3-ylmethyl)-[1,4′-bipiperidin]-4-yl)-1H-indole] | 101 | 133 |
